Here are results for 14 compounds from patent US11345666B2, “Phenyl and pyridinyl substituted imidazoles as modulators of RORγT” (Janssen Pharmaceutica NV, priority 2018, dated 2022).

Assay [1] addresses human RORγt ligand binding domain (RORγt LBD) (Homo sapiens (Human), UniProt P51449). Nature of the assay: RORγt ThermoFluor assay. The gist of the method:
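Thermal shift of His-tagged human RORγt LBD (0.065 mg/mL) with 60 μM 1,8-ANS in 100 mM Hepes pH 7.0, 10 mM NaCl, 2.5 mM GSH, 0.002% Tween-20, heated at 1° C./min. Compounds in 1:2 series from a 10 mM DMSO stock; KD estimated from ΔTm using protein unfolding thermodynamics.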

For a further assay, the target named is full-length human RORγt (Homo sapiens (Human), UniProt P51449). Nature of the assay: RORγt (full-length human) reporter assay, conditions A or B. Type of assay: cell-based. To be noted: for IC50: HEK293T cells, read-out: RORγt (FL) Reporter Assay A or B, IC50; for inhibition at 6 µM: read-out: RORγt (FL) Reporter Assay A or B, % inhibition @ 6 μM, 6 μM compound concentration; for inhibition at 2 µM: 2 μM compound concentration (**). The gist of the method: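 HEK293T cells transiently co-transfected (PEI) with GAL4-DBD–RORγt, GAL4-firefly luciferase and CMV-Renilla reporters; condition A 35,000 cells/well, 170.5 ng DNA/well; condition B 8750 cells/well, 42.6 ng DNA/well.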
Chain of full-length human RORγt (P51449 other isoform, or with tags, fused parts or gaps): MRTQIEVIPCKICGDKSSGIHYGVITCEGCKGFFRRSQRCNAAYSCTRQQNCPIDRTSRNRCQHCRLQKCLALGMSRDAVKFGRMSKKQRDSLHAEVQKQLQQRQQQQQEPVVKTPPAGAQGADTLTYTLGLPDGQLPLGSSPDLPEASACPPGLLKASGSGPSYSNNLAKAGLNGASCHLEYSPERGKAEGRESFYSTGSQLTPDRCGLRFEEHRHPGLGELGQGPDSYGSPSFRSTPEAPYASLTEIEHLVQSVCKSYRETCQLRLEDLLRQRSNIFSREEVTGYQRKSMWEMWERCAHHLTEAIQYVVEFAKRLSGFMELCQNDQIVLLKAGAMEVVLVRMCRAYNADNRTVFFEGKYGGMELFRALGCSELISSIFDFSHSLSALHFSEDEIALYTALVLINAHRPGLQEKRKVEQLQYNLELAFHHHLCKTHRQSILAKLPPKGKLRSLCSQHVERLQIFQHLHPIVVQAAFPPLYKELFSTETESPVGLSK

Where [2] appears, read: read-out: RORγt (FL) Reporter Assay A or B, % inhibition.

Chain of human RORγt ligand binding domain (RORγt LBD) (P51449 other isoform, or with tags, fused parts or gaps): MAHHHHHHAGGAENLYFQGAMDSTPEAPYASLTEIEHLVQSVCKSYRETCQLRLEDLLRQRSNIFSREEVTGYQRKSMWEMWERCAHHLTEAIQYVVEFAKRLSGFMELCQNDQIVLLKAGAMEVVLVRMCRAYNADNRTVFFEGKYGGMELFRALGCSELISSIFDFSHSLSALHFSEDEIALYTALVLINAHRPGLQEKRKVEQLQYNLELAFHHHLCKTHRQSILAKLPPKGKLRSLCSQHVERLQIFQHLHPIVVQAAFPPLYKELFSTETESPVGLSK

In assay [1], `CCc1nc(C(=O)NC[C@H]2CC[C@H](S(C)(=O)=O)CC2)c(F)n1-c1ccc(CC(C)C(F)(F)F)cc1OC` (stereo partly drawn) [Example 15, 2-Ethyl-5-fluoro-1-(2-methoxy-4-(3,3,3-trifluoro-2-methylpropyl)phenyl)-N-(((1r,4r)-4-(methylsulfonyl)cyclohexyl)methyl)-1H-imidazole-4-carboxamide] came in with a Kd of 3.9 nM. At full-length human RORγt, the IC50 stood at 55 nM and the inhibition at 6 µM stood at 103%.

In the case of `CCc1nc(C(=O)NC[C@H]2CC[C@H](S(C)(=O)=O)CC2)c(C#N)n1-c1ccc(CC(C)C(F)(F)F)cc1OC` (stereo partly drawn) [Example 16, 5-Cyano-2-ethyl-1-(2-methoxy-4-(3,3,3-trifluoro-2-methylpropyl)phenyl)-N-(((1r,4r)-4-(methylsulfonyl)cyclohexyl)methyl)-1H-imidazole-4-carboxamide], in assay [1], the Kd was found to be 1.3 nM. Besides, the inhibition at 2 µM on full-length human RORγt (setting [2]) amounted to 103%. Also, the IC50 on full-length human RORγt amounted to 16 nM.

On to `CCc1nc(C(=O)NC[C@H]2CC[C@H](S(C)(=O)=O)CC2)c(C#N)n1-c1ccc(CCC(F)(F)F)cc1OC` [Example 21, 5-Cyano-2-ethyl-1-(2-methoxy-4-(3,3,3-trifluoropropyl)phenyl)-N-(((1r,4r)-4-(methylsulfonyl)cyclohexyl)methyl)-1H-imidazole-4-carboxamide], for which the Kd in assay [1] stood at 14 nM. Besides, at full-length human RORγt, the IC50 stood at 94 nM and the inhibition at 6 µM was determined as 101%.

`CCc1nc(C(=O)NC[C@]2(O)CC[C@@H](S(C)(=O)=O)CC2)c(Cl)n1-c1ccc(CCC(F)(F)F)cc1F` [Example 23, 5-Chloro-2-ethyl-1-(2-fluoro-4-(3,3,3-trifluoropropyl)phenyl)-N-(((1s,4s)-1-hydroxy-4-(methylsulfonyl)cyclohexyl)methyl)-1H-imidazole-4-carboxamide] gave a Kd in assay [1] of 49 nM. Further, at full-length human RORγt, the IC50 was found to be 37 nM and the inhibition at 6 µM was 41%.

With `CCc1nc(C(=O)NC[C@]2(O)CC[C@@H](S(C)(=O)=O)CC2)c(C#N)n1-c1ccc(CC(C)(C)C(F)(F)F)cc1OC(F)F` [Example 24, 5-Cyano-1-(2-(difluoromethoxy)-4-(3,3,3-trifluoro-2,2-dimethylpropyl)phenyl)-2-ethyl-N-(((1s,4s)-1-hydroxy-4-(methylsulfonyl)cyclohexyl)methyl)-1H-imidazole-4-carboxamide], the Kd in assay [1] came out at 5.3 nM. At full-length human RORγt, the IC50 turned out to be 33 nM and the inhibition at 6 µM is 104%.

Compound `CCc1nc(C(=O)NC[C@]2(O)CC[C@@H](S(C)(=O)=O)CC2)c(C#N)n1-c1ccc(CCC(F)(F)F)cc1OC(F)F` [Example 25, 5-Cyano-1-(2-(difluoromethoxy)-4-(3,3,3-trifluoropropyl)phenyl)-2-ethyl-N-(((1s,4s)-1-hydroxy-4-(methylsulfonyl)cyclohexyl)methyl)-1H-imidazole-4-carboxamide] gave a Kd in assay [1] of 84 nM. On full-length human RORγt, the IC50 is 370 nM and the inhibition at 6 µM was 101%.

`CCc1nc(C(=O)NC[C@H]2CC[C@H](S(C)(=O)=O)CC2)c(C#N)n1-c1ccc(CCC(F)(F)F)cc1OC(F)F` [Example 26, 5-Cyano-1-(2-(difluoromethoxy)-4-(3,3,3-trifluoropropyl)phenyl)-2-ethyl-N-(((1r,4r)-4-(methylsulfonyl)cyclohexyl)methyl)-1H-imidazole-4-carboxamide] returned a Kd in assay [1] of 24 nM. At full-length human RORγt, the IC50 worked out at 54 nM and the inhibition at 6 µM was found to be 96%.

With `[2H]C([2H])([2H])Oc1cc(CC(C)(C)C(F)(F)F)ccc1-n1c(CC)nc(C(=O)NC[C@]2(O)CC[C@@H](S(C)(=O)=O)CC2)c1C#N` [Example 28, 5-Cyano-2-ethyl-N-(((1s,4s)-1-hydroxy-4-(methylsulfonyl)cyclohexyl)methyl)-1-(2-(methoxy-d3)-4-(3,3,3-trifluoro-2,2-dimethylpropyl)phenyl)-1H-imidazole-4-carboxamide], the Kd in assay [1] is 2.5 nM. The inhibition at 2 µM on full-length human RORγt (setting [2]) is 102%. The IC50 at full-length human RORγt was found to be 33 nM.

For the compound `[2H]C([2H])([2H])Oc1cc(CCC(F)(F)F)ccc1-n1c(CC)nc(C(=O)NC[C@H]2CC[C@H](S(C)(=O)=O)CC2)c1C#N` [Example 29, 5-Cyano-2-ethyl-1-(2-(methoxy-d3)-4-(3,3,3-trifluoropropyl)phenyl)-N-(((1r,4r)-4-(methylsulfonyl)cyclohexyl)methyl)-1H-imidazole-4-carboxamide], the Kd in assay [1] was determined as 15 nM. At full-length human RORγt, the concentration for half-maximal inhibition (IC50) was 87 nM and the inhibition at 6 µM is 95%.

As for `[2H]C([2H])([2H])Oc1cc(CCC(F)(F)F)ccc1-n1c(CC)nc(C(=O)NC[C@]2(O)CC[C@@H](S(C)(=O)=O)CC2)c1C#N` [Example 30, 5-Cyano-2-ethyl-N-(((1s,4s)-1-hydroxy-4-(methylsulfonyl)cyclohexyl)methyl)-1-(2-(methoxy-d3)-4-(3,3,3-trifluoropropyl)phenyl)-1H-imidazole-4-carboxamide], the Kd in assay [1] stood at 44 nM. In addition, at full-length human RORγt, the IC50 came to 320 nM and the inhibition at 6 µM turned out to be 96%.

The compound `[2H]C([2H])([2H])Oc1cc(CC(C)(C)C(F)(F)F)ccc1-n1c(CC)nc(C(=O)NC[C@]2(C#N)CC[C@@H](S(C)(=O)=O)CC2)c1F` [Example 31, N-(((1s*,4s*)-1-Cyano-4-(methylsulfonyl)cyclohexyl)methyl)-2-ethyl-5-fluoro-1-(2-(methoxy-d3)-4-(3,3,3-trifluoro-2,2-dimethylpropyl)phenyl)-1H-imidazole-4-carboxamide] came in with a Kd in assay [1] of 14 nM. The inhibition at 2 µM on full-length human RORγt (setting [2]) was found to be 101%. Besides, the IC50 at full-length human RORγt was determined as 78 nM.

On to `[2H]C([2H])([2H])Oc1cc(CC(C)(C)C(F)(F)F)ccc1-n1c(CC)nc(C(=O)NC[C@]2(O)CC[C@@H](S(C)(=O)=O)CC2)c1F` [Example 32, 2-Ethyl-5-fluoro-N-(((1s,4s)-1-hydroxy-4-(methylsulfonyl)cyclohexyl)methyl)-1-(2-(methoxy-d3)-4-(3,3,3-trifluoro-2,2-dimethylpropyl)phenyl)-1H-imidazole-4-carboxamide], for which the Kd in assay [1] was determined as 12 nM. Further, the inhibition at 2 µM at full-length human RORγt (setting [2]) was 99%. Moreover, the IC50 on full-length human RORγt worked out at 71 nM.

With `[2H]C([2H])([2H])Oc1cc(CC(C)(C)C(F)(F)F)ccc1-n1c(CC)nc(C(=O)NC[C@H]2CC[C@H](S(C)(=O)=O)CC2)c1F` [Example 33, 2-Ethyl-5-fluoro-1-(2-(methoxy-d3)-4-(3,3,3-trifluoro-2,2-dimethylpropyl)phenyl)-N-(((1r,4r)-4-(methylsulfonyl)cyclohexyl)methyl)-1H-imidazole-4-carboxamide], the Kd in assay [1] is 4.8 nM. In addition, the inhibition at 0.67 µM on full-length human RORγt (0.67 μM compound concentration (****), read-out: RORγt (FL) Reporter Assay A or B, % inhibition) is 94%. Besides, the IC50 on full-length human RORγt is 15 nM.

On to `CCc1nc(C(=O)NC[C@H]2CC[C@H](S(C)(=O)=O)CC2)c(F)n1-c1ccc(CC(C)(C)C(F)(F)F)cc1OC(F)F` [Example 34, 1-(2-(Difluoromethoxy)-4-(3,3,3-trifluoro-2,2-dimethylpropyl)phenyl)-2-ethyl-5-fluoro-N-(((1r,4r)-4-(methylsulfonyl)cyclohexyl)methyl)-1H-imidazole-4-carboxamide], for which the Kd in assay [1] was 3.5 nM. Also, at full-length human RORγt (setting [2]), the inhibition at 2 µM came to 98%. The IC50 at full-length human RORγt was 37 nM.
